Results: patent US20190100555A1, “EYE-CARE PEPTIDE, ITS COMPOSITION AND METHOD OF USING THE SAME” (PRO SUNFUN BIOTECH RESEARCH AND DEVELOPMENT CO., LTD., priority 2017, published 2019)
Peptide text beside a SMILES is read from it.

System: HCEC cells
Test: MTT assay (cell viability)
Format: cell-based, Human
Procedure: Human corneal epithelial cell line, HCEC, was cultured in complete KSF containing keratinocyte-serum free medium, 5 ng/ml human recombinant EGF, 0.05 mg/ml bovine pituitary extract, 0.005 mg/ml insulin and 500 ng/ml hydrocortisone under 5% CO2 at 37° C.
Cells (2×10^4) in 1 ml complete KSF were seeded in 12-well plates with or without Peptide NO. 12. Seventy microliters of 5 mg/ml 3-(4,5-dimethyl-2-thiazolyl)-2,5-diphenyl-2H-tetrazolium bromide solution (MTT; Sigma) was added to each well for the indicated times and incubated at 37° C. for 3 hours, after which 700 μl 10% SDS in 0.01 N HCl was added to dissolve the MTT formazan crystals. The resultant optical density was measured spectrophotometrically at dual wavelengths, 550 and 630 nm.

Which “viability of HCEC cells” value (24 hours, 5, 10, 25 and 50 μg/ml) does the source give for `CC(C)C[C@H](NC(=O)[C@@H]1CCCN1C(=O)[C@H](CC(N)=O)NC(=O)[C@@H](N)CCCNC(=N)N)C(=O)N[C@@H](CCC(=O)O)C(=O)N[C@@H](CCC(=O)O)C(=O)N[C@H](C(=O)O)[C@@H](C)O` [Peptide NO. 12, ArgAsnProLeuGluGluThr] (H-RNPLEET-OH) here?
The value was “did not significantly affect viability”.

What about the “viability of HCEC cells” value (48 hours, 5, 10, 25 and 50 μg/ml) of the same compound?
Its value is “did not significantly affect viability”.
